The source of these data is PubChem BioAssay AID1195 (EPA DSSTox, 2008).

This data set relates to human maximum recommended daily dose, FDA database. The experiment in a line: DSSTox (FDAMDD) FDA Maximum (Recommended) Daily Dose Database. The note with it: stronger effect = lower value. The method, boiled down:
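MRDD values come from clinical trials with daily oral dosing, usually for 3–12 months, for the average adult, in mg/day converted to mg/kg-bw/day assuming 60 kg. Antineoplastic mg/m2 doses are divided by 37. Activity score maps log10(1/MRDD mmol) onto 1–100.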

Where [1] appears, read: TherapeuticCategory: antihistaminic.
Setting [2] is: TherapeuticCategory: antineoplastic.
[3] abbreviates: TherapeuticCategory: antibacterial.

Starred links: 1 amine or outer side, 2 acyl side, 3 side chain; linkers in the order of their positions; H or OH if unused. Positions of bridges follow the written chain, without caps; N, C: chain ends. Non-standard residues stand in square brackets, D forms with d. Residues, ends and D or L forms follow the SMILES beside them. Chains are numbered I, II in the order given. Actinocin(9to1) = Cc1c2oc3c(C)ccc(C(=O)[*:1])c3nc-2c(C(=O)[*:2])c(N)c1=O; NMeV = CN[C@H](C(=O)O)C(C)C; Sar = CNCC(=O)O

With `CC(CN(C)C)CN1c2ccccc2S(=O)(=O)c2ccccc21` (configuration not stated), the maximum recommended daily dose (mmol/kg-bw/day) under setting [1] was 0.00202. With `COc1cccc2c1C(=O)c1c(O)c3c(c(O)c1C2=O)C[C@@](O)(C(=O)CO)C[C@@H]3O[C@H]1C[C@H](N)[C@H](O)[C@H](C)O1`, the maximum recommended daily dose (mmol/kg-bw/day) under setting [2] is 0.00447. Turning to `O=C(O)c1cccnc1Nc1cccc(C(F)(F)F)c1`, for the setting “TherapeuticCategory: anti inflammatory”, the maximum recommended daily dose (mmol/kg-bw/day) was 0.0443. As to `OC[C@H]1O[C@](O)(CO)[C@@H](O)[C@@H]1O`, the maximum recommended daily dose (mmol/kg-bw/day) (TherapeuticCategory: fluid and nutrient replenisher, ferric form as hematinic) was 2.31. As to `CCCCCCC(=O)O[C@H]1CC[C@H]2[C@@H]3CCc4cc(O)ccc4[C@H]3CC[C@]12C`, the maximum recommended daily dose (mmol/kg-bw/day) (TherapeuticCategory: estrogen) was 0.0013.

Turning to `COC1CC(=C(c2cccs2)c2cccs2)C[N+](C)(C)C1` (configuration not stated), the maximum recommended daily dose (mmol/kg-bw/day) (TherapeuticCategory: anticholinergic) is 0.00375.

Consider `O=[N+]([O-])O[C@@H]1CO[C@H]2[C@@H]1OC[C@@H]2O`, for which the maximum recommended daily dose (mmol/kg-bw/day) (TherapeuticCategory: antianginal) was 0.0105. Regarding `CCOC(=O)c1ncn2c1CN(C)C(=O)c1cc(F)ccc1-2`, the maximum recommended daily dose (mmol/kg-bw/day) (TherapeuticCategory: benzodiazepine antagonist) was 0.000165. As to `CNS(=O)(=O)Cc1ccc2[nH]cc(CCN(C)C)c2c1`, for the setting “TherapeuticCategory: antimigraine”, the maximum recommended daily dose (mmol/kg-bw/day) was 0.000677. Regarding `C[C@]1(Cn2ccnn2)[C@H](C(=O)O)N2C(=O)C[C@H]2S1(=O)=O`, the maximum recommended daily dose (mmol/kg-bw/day) under setting [3] was 0.0833. Take `CCNCC(O)c1cccc(O)c1` (configuration not stated): the maximum recommended daily dose (mmol/kg-bw/day) (TherapeuticCategory: antihypotensive) is 0.0046. For the molecule `NC(=O)OCC(O)COc1ccc(Cl)cc1` (configuration not stated), the maximum recommended daily dose (mmol/kg-bw/day) (TherapeuticCategory: topical antifungal) is 0.163.

Consider `C=C1CC[C@H](O)C/C1=C/C=C1\CCC[C@]2(C)[C@@H]([C@H](C)CCCC(C)(C)O)CC[C@@H]12`, for which, for the setting “TherapeuticCategory: calcium regulator”, the maximum recommended daily dose (mmol/kg-bw/day) was 8.31e-06. In the case of `CN1[C@@H]2CC[C@H]1CC(OC(=O)C(CO)c1ccccc1)C2` (some centres not stated), the maximum recommended daily dose (mmol/kg-bw/day) (TherapeuticCategory: anticholinergic, mydriatic, antispasmodic) was 4.6e-06. As for `CCOC(C)=O`, where the note is “TherapeuticCategory: none”, the maximum recommended daily dose (mmol/kg-bw/day) was 0.284. For the molecule `C[C@H]1[C@H](NC(=O)/C(=N\OC(C)(C)C(=O)O)c2csc(N)n2)C(=O)N1S(=O)(=O)O`, the maximum recommended daily dose (mmol/kg-bw/day) under setting [3] was 0.305. For the molecule `CC(C)(N)Cc1ccccc1`, for the setting “TherapeuticCategory: anorexic”, the maximum recommended daily dose (mmol/kg-bw/day) is 0.00419.

With `CO[C@H]1/C=C/O[C@@]2(C)Oc3c(C)c(O)c4c(O)c(c(/C=N/N5CCN(C)CC5)c(O)c4c3C2=O)NC(=O)/C(C)=C\C=C\[C@H](C)[C@H](O)[C@@H](C)[C@@H](O)[C@@H](C)[C@H](OC(C)=O)[C@@H]1C`, under setting [3], the maximum recommended daily dose (mmol/kg-bw/day) was 0.0243.

Regarding `CO[C@H]1C[C@H](O[C@H]2[C@H](C)[C@@H](O[C@@H]3O[C@H](C)C[C@H](N(C)C)[C@H]3OC(C)=O)[C@@H](C)C[C@]3(CO3)C(=O)[C@H](C)[C@@H](OC(C)=O)[C@@H](C)[C@@H](C)OC(=O)[C@@H]2C)O[C@@H](C)[C@@H]1OC(C)=O`, under setting [3], the maximum recommended daily dose (mmol/kg-bw/day) is 0.0409. As for `C[N+](C)(C)CCOC(N)=O`, the maximum recommended daily dose (mmol/kg-bw/day) (TherapeuticCategory: cholinergic, miotic) is 0.000365.

With `Cc1c2oc3c(C)ccc(C(=O)N[C@@H]4C(=O)N[C@H](C(C)C)C(=O)N5CCC[C@H]5C(=O)N(C)CC(=O)N(C)[C@@H](C(C)C)C(=O)O[C@@H]4C)c3nc-2c(C(=O)N[C@@H]2C(=O)N[C@H](C(C)C)C(=O)N3CCC[C@H]3C(=O)N(C)CC(=O)N(C)[C@@H](C(C)C)C(=O)O[C@@H]2C)c(N)c1=O` (I: T[dV]P[Sar][NMeV] / II: T[dV]P[Sar][NMeV]; ester I:1-I:C, II:1-II:C; linker I:N-II:N via Actinocin(9to1)), the maximum recommended daily dose (mmol/kg-bw/day) under setting [2] is 1.19e-05. Turning to `Nc1nc2ncc(CNc3ccc(C(=O)N[C@@H](CCC(=O)O)C(=O)O)cc3)nc2c(=O)[nH]1`, the maximum recommended daily dose (mmol/kg-bw/day) (TherapeuticCategory: hematopoetic) was 3.01e-05. Turning to `NC(CSCC(=O)O)C(=O)O` (configuration not stated), the maximum recommended daily dose (mmol/kg-bw/day) (TherapeuticCategory: mucolytic, expectorant) was 0.209.

For the molecule `c1ccc(CN(CC2=NCCN2)c2ccccc2)cc1`, the maximum recommended daily dose (mmol/kg-bw/day) under setting [1] was 0.0188.

For the molecule `CC(CN(C)C)CN1c2ccccc2Sc2ccccc21` (configuration not stated), the maximum recommended daily dose (mmol/kg-bw/day) (TherapeuticCategory: antipruritic) is 0.0056. For `CCC1(C)OC(=O)N(C)C1=O` (configuration not stated), the maximum recommended daily dose (mmol/kg-bw/day) (TherapeuticCategory: anticonvulsant) is 0.255. In the case of `COc1cc(NS(=O)(=O)c2ccc(N)cc2)c(OC)nn1`, the maximum recommended daily dose (mmol/kg-bw/day) under setting [3] was 0.161.
